≈ marks a conversion by molar mass, not a printed value.
Tests used:
Assay type in all cases: cell-based
[1] = test system: S. aureus 76 (Meth^R)(lac^+); assay: In vitro antibacterial evaluation, MIC by agar dilution, S. aureus 76; conditions: Staphylococcus aureus, read-out: MIC
Outline: (§1)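 Growth inhibition on Mueller-Hinton agar plates defined the MIC, the lowest compound level stopping visible growth after 16-20 hours at 35°-36° C. Compound was incorporated at two-fold steps from 128 μg/mL to ≤0.25 μg/mL, each tested twice, with about 10^4 cfu spotted per isolate.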

E. faecium ATCC 35667 = assay: In vitro antibacterial evaluation, MIC by agar dilution, E. faecium ATCC 35667; conditions: Enterococcus faecium, ATCC35667, read-out: MIC
Outline: as §1

P. aeruginosa ATCC 27853 = assay: In vitro antibacterial evaluation, MIC by agar dilution, P. aeruginosa ATCC 27853; conditions: Pseudomonas aeruginosa, ATCC27853, read-out: MIC
Outline: as §1

S. aureus ATCC 25923 = assay: In vitro antibacterial evaluation, MIC by agar dilution, S. aureus ATCC 25923; conditions: Staphylococcus aureus, ATCC25923
Method: (§2) The compounds of the invention were evaluated against several β-lactamresistant bacteria strains by determining the minimum inhibitory concentration (MIC, μg/ml) of each compound with respect to each strain. The MIC, the lowest concentration of antibiotic which inhibits growth of the test organism, was determined by the agar dilution method.
(§3) To determine the MIC for bacterial isolates, the test compound was incorporated in a series of two-fold dilutions into liquified Mueller-Hinton agar. Upon solidification, a number of different bacterial strains were spot inoculated with a replicating device onto the agar surface. […] The procedures used in these studies have been standardized by the National Committee for Clinical Laboratory Standards (NCCLS), as per the NCCLS publication entitled METHODS FOR DILUTION ANTIMICROBIAL SUSCEPTIBILITY TESTS (1991), which is incorporated herein by reference.
(§4) Aliquots of antimicrobial agents were prepared in phosphate buffered saline (PBS) at pH 7.2. Tween 20 or DMSO was used as a solubilizing vehicle as needed. Standard methods of vortexing, sonicating and gentle heat were used to facilitate solubilizing the test agent. Typically, the concentration of the stock solution was 10× that of the highest drug concentration tested. A 1.28 mg/mL stock solution was used with a subsequent highest working concentration of 128 μg/mL. Serial two-fold dilutions were done through ≤0.25 μg/mL. Each drug level was tested in duplicate. Two-fold drug dilutions were done in sterile 50 mL tubes with a final drug volume of 5 mL. Upon the addition of 45 mL of molten agar, a 10-fold dilution resulted. Two, 25 mL. plates were then poured into 15×150 mm square Petri plates with grids and allowed to harden.
(§5) A control plate with a reference drug, either cefotaxime, vancomycin or imipenem, was used as the positive growth control. Stock concentrations of reference antibiotics were prepared and frozen at -80° C. Upon preparation, the control plates were sealed and stored in the refrigerator for up to 1 week prior to use; however, imipenem control plates had to be prepared just prior to use. All test plates were used within 24 hours of preparation.
(§6) Satisfactory results were obtained where the inoculum contained about 10^4 colony forming units (cfu) ±0.5 logs. Starting with pure cultures of the test isolates on agar plates, a few isolated colonies were transferred to a tube of nutrient broth and allowed to grow 4-6 hours at 35°-36° C. to reach log-phase growth. Dropwise addition of the broth culture to PBS was done to match a 0.5 McFarland turbidity standard equal to 10^8 cfu/mL. This was further diluted ten-fold in PBS to reach a working inoculum concentration of 10^7 cfu/mL. When 1 μL of the working inoculum was applied to the agar surface a concentration of about 10^4 cfu per spot was obtained.
(§7) Disposable sterile 1 μL loops were used to inoculate test plates, with each isolate in a designated grid on the agar plate. An alternate method of inoculation involved the use of a replica plater, a device with 48 steel pins allowing the simultaneous inoculation of multiple isolates. After the spots had dried, the plates were incubated at 35°-36° C. for 16-20 hours. Endpoints were assessed as the minimum inhibitory concentration (MIC) of antimicrobial agent.

[2] = test system: S. epidermidis ATCC 31432; assay: In vitro antibacterial evaluation, MIC by agar dilution, S. epidermidis ATCC 31432; conditions: Staphylococcus epidermidis, ATCC31432
Method: as §2, §3, §4, §5, §6, §7

E. coli ATCC 25922 = assay: In vitro antibacterial evaluation, MIC by agar dilution, E. coli ATCC 25922; conditions: Escherichia coli, ATCC25922, read-out: MIC
Outline: as §1

[3] = test system: S. aureus Col8A (Meth^S)(lac^-); assay: In vitro antibacterial evaluation, MIC by agar dilution, S. aureus Col8A; conditions: Staphylococcus aureus
Outline: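 Agar dilution per NCCLS (1991): two-fold dilutions from 128 μg/mL down to ≤0.25 μg/mL in Mueller-Hinton agar, each level in duplicate. Spots of about 10^4 cfu of log-phase culture; 16-20 h at 35°-36° C. MIC in μg/ml is the lowest concentration inhibiting growth.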

E. faecalis ATCC 29212 = assay: In vitro antibacterial evaluation, MIC by agar dilution, E. faecalis ATCC 29212; conditions: Enterococcus faecalis, ATCC29212; E. faecalis ATCC 29212; read-out: MIC
Method: as §2, §3, §4, §5, §6, §7

S. haemolyticus (Meth^R) = assay: In vitro antibacterial evaluation, MIC by agar dilution, S. haemolyticus; conditions: Staphylococcus haemolyticus, read-out: MIC
Outline: as §1

| SMILES | MIC [1] | MIC (E. faecium ATCC 35667) | MIC (P. aeruginosa ATCC 27853) | MIC (S. aureus ATCC 25923) | MIC [2] | MIC (E. coli ATCC 25922) | MIC [3] | MIC (E. faecalis ATCC 29212) | MIC (S. haemolyticus (Meth^R)) |
| --- | --- | --- | --- | --- | --- | --- | --- | --- | --- |
| N#CCC(=O)N[C@@H]1C(=O)N2C(C(=O)O)=C(Sc3ccccc3-c3ccccc3)CS[C@H]12 [Cmpd 34, (7R)-7-[(Cyanoacetyl)amino]-3-(2-biphenylthio)-3-cephem-4-carboxylic acid] | 8 µg/mL (≈ 17.7 µM) | 2 µg/mL (≈ 4.43 µM) | > 32 µg/mL | < 0.25 µg/mL | < 0.25 µg/mL | > 32 µg/mL | < 0.25 µg/mL | 2 µg/mL (≈ 4.43 µM) | 8 µg/mL (≈ 17.7 µM) |
| O=C(CSc1ccccc1)N[C@@H]1C(=O)N2C(C(=O)O)=C(Sc3cc(Cl)ccc3Cl)CS[C@H]12 [Cmpd 35, (7R)-7-[(Phenylthioacetyl)amino]-3-(2,5-dichlorophenylthio)-3-cephem-4-carboxylic acid] | 2 µg/mL (≈ 3.79 µM) | 1 µg/mL (≈ 1.9 µM) | > 32 µg/mL | < 0.25 µg/mL | < 0.25 µg/mL | > 32 µg/mL | < 0.25 µg/mL | 1 µg/mL (≈ 1.9 µM) | 8 µg/mL (≈ 15.2 µM) |
| C=Cc1ccccc1SC1=C(C(=O)O)N2C(=O)[C@@H](NC(=O)Cc3ccccc3)[C@H]2SC1 [Cmpd 36, (7R)-7-[(Phenylacetyl)amino]-3-(2-vinylphenylthio)-3-cephem-4-carboxylic acid] | 8 µg/mL (≈ 17.7 µM) | 4 µg/mL (≈ 8.84 µM) | > 32 µg/mL | < 0.25 µg/mL | < 0.25 µg/mL | > 32 µg/mL | < 0.25 µg/mL | 2 µg/mL (≈ 4.42 µM) | 16 µg/mL (≈ 35.4 µM) |
| O=C(Cc1ccccc1)N[C@@H]1C(=O)N2C(C(=O)O)=C(Sc3ccccc3-c3cccs3)CS[C@H]12 [Cmpd 37, (7R)-7-[(Phenylacetyl)amino]-3-(2-(2-thienyl)phenylthio)-3-cephem-4-carboxylic acid] | 8 µg/mL (≈ 15.7 µM) | 2 µg/mL (≈ 3.93 µM) | > 32 µg/mL | < 0.25 µg/mL | < 0.25 µg/mL | > 32 µg/mL | < 0.25 µg/mL | 2 µg/mL (≈ 3.93 µM) | 16 µg/mL (≈ 31.5 µM) |
| O=C(Cc1ccccc1)N[C@@H]1C(=O)N2C(C(=O)O)=C(Sc3ccccc3CO)CS[C@H]12 [Cmpd 38, (7R)-7-[(Phenylacetyl)amino]-3-(2-hydroxymethylphenylthio)-3-cephem-4-carboxylic acid] | 16 µg/mL (≈ 35 µM) | 4 µg/mL (≈ 8.76 µM) | > 32 µg/mL | < 0.25 µg/mL | < 0.25 µg/mL | > 32 µg/mL | < 0.25 µg/mL | 4 µg/mL (≈ 8.76 µM) | 32 µg/mL (≈ 70.1 µM) |
| O=C(Cc1ccccc1)N[C@@H]1C(=O)N2C(C(=O)O)=C(Sc3ccc(Br)cc3Br)CS[C@H]12 [Cmpd 39, (7R)-7-[(Phenylacetyl)amino]-3-(2,4-dibromophenylthio)-3-cephem-4-carboxylic acid] | 4 µg/mL (≈ 6.85 µM) | 2 µg/mL (≈ 3.42 µM) | > 32 µg/mL | < 0.25 µg/mL | < 0.25 µg/mL | > 32 µg/mL | < 0.25 µg/mL | 2 µg/mL (≈ 3.42 µM) | 8 µg/mL (≈ 13.7 µM) |
| O=C(Cc1ccccc1)N[C@@H]1C(=O)N2C(C(=O)O)=C(Sc3ccc(C(F)(F)F)cc3)CS[C@H]12 [Cmpd 40, (7R)-7-[(Phenylacetyl)amino]-3-(4-trifluoromethylphenylthio)-3-cephem-4-carboxylic acid] | 16 µg/mL (≈ 32.4 µM) | 4 µg/mL (≈ 8.09 µM) | > 32 µg/mL | < 0.25 µg/mL | < 0.25 µg/mL | > 32 µg/mL | < 0.25 µg/mL | 4 µg/mL (≈ 8.09 µM) | 32 µg/mL (≈ 64.7 µM) |

Source: patent US5607926A, “Cephalosporin antibiotics” (Microcide Pharmaceuticals, Inc., priority 1995, dated 1997)
